Measured values: patent US9683025B2, “Methods and compositions for treating cancer and inflammatory diseases” (The Regents of the University of Colorado, A Body Corporate, priority 2013, dated 2017)
“Also recorded” adds a separate entry of the source. Read-outs that look alike come from different tables or passages of the source. Where a SMILES comes first, the peptide text is derived from it.

Key:
CtBP-E1A interaction [1] = biological target: T1, CtBP-E1A interaction (Homo sapiens, UniProt Q13363); conditions: read-out: IC50 of inhibition of the CtBP/E1A interaction in vitro; Zhang et al. 2000; cited from earlier work
CtBP-E1A interaction [2] = biological target: T1, CtBP-E1A interaction; assay: CtBP-E1A interaction inhibition (AlphaScreen / fluorescence polarization competition assay); type: binding; conditions: IC50 value, Table 3; inhibition of CtBP/E1A protein interaction
Protocol: The ability of peptides to inhibit CtBP binding can be monitored by two biochemical assays. An AlphaScreen assay (Perkin-Elmer) was developed that is capable of detecting the CtBP-E1A interaction. Purified GST-E1A and 6xHis-CtBP are incubated with glutathione-conjugated donor beads and nickel-chelated acceptor beads respectively. The interaction between CtBP and E1A brings the donor and acceptor beads in close proximity, which produces a fluorescence signal after laser excitation and can be detected using the EnVision plate reader. A peptide that inhibits this interaction will limit the proximity of the beads and thus a loss in fluorescence signal will occur. In addition to the alphascreen, a fluorescence polarization based assay with a fluorescein-labeled 14mer E1A peptide ([…] (SEQ ID NO: 1)) was also developed. Purified 6xHis-CtBP is incubated with the fluorescein-labeled E1A peptide and changes in the polarization value of the labeled peptide are detected using the EnVision plate reader. A decrease in peptide binding to CtBP can be detected by an […], and used to monitor peptide inhibition. IC50 values of designed peptides can be determined using either of these assays through the addition of increasing amounts in each well and monitoring the degree of inhibition of the CtBP-E1A interaction.
Multiple amino acid sequences may appear at positions outside the conserved peptide motif. The most frequently occurring amino acids in these positions are used to design the peptides that bind CtBP with the highest affinity. The affinity of these new peptides is compared to the original 14mer E1A peptide (SEQ ID NO:1) by comparing the IC50 of these peptides in inhibiting the CtBP/E1A protein interaction in a competition assay. The peptide identified from phage display that competes with the CtBP/E1A protein interaction better than the original 14mer E1A peptide is selected and conjugated to the cell penetrating peptide of the present invention. Also provided in Table 3 are […] for selected peptides.
The ability of peptides to inhibit CtBP binding can be monitored by two biochemical assays. An AlphaScreen assay (Perkin-Elmer) was developed that is capable of detecting the CtBP-E1A interaction. Purified GST-E1A and 6xHis-CtBP are incubated with glutathione-conjugated donor beads and nickel-chelated acceptor beads respectively. The interaction between CtBP and E1A brings the donor and acceptor beads in close proximity, which produces a fluorescence signal after laser excitation and can be detected using the EnVision plate reader. A peptide that inhibits this interaction will limit the proximity of the beads and thus a loss in fluorescence signal will occur. In addition to the alphascreen, a fluorescence polarization based assay with a fluorescein-labeled 14mer E1A peptide ([…] (SEQ ID NO: 1)) was also developed. Purified 6xHis-CtBP is incubated with the fluorescein-labeled E1A peptide and changes in the polarization value of the labeled peptide are detected using the EnVision plate reader. A decrease in peptide binding to CtBP can be detected by an […], and used to monitor peptide inhibition. IC50 values of designed peptides can be determined using either of these assays through the addition of increasing amounts in each well and monitoring the degree of inhibition of the CtBP-E1A interaction. Also provided in Table 4 are IC50 for selected peptides.

CtBP [3] = biological target: T2, CtBP (Homo sapiens, UniProt Q13363); assay: Fluorescence polarization competition of unlabeled peptide with FITC-labeled 14mer peptide; type: binding
T2 construct: 6xHis
Protocol: (§1) Additional peptides were tested for in vitro inhibitory potency (Table 5). For Kd determination, FITC-labeled peptide (FITC-peptide) was incubated with varying concentrations of CtBP. The fluorescence polarization values of the FITC-peptide were measured and plotted against CtBP concentration to determine Kd of the FITC-peptide with CtBP using the Prism program. […] For IC50 determination, a fluorescence polarization assay was utilized. […] Increasing concentrations of unlabeled peptide were added to compete with the FITC-labeled peptide, leading to a decreased fluorescence polarization value.

CtBP [4] = biological target: T2, CtBP; assay: Fluorescence polarization Kd determination of FITC-peptide with CtBP; type: binding
Protocol: as §1

3T3 cells = assay: Cell viability, 3T3; type: cell-based, mouse; conditions: 3T3, does not significantly overexpress CtBP, FIG. 5
Source text: (§2) The Tat peptide alone has no effect on these cells.

A375 melanoma cells = assay: Cell viability, A375; type: cell-based; conditions: A375, CtBP overexpressing, FIG. 5
Source text: as §2

[5] = system: H1299 non-small cell lung carcinoma cells; assay: Cell viability, H1299; type: cell-based, human; conditions: H1299, CtBP overexpressing, FIG. 5
Source text: as §2

[6] = system: CtBP target genes BAX, BRCA1, and E-Cadherin; assay: Real-time PCR of endogenous CtBP target genes in H1299 cells; type: cell-based, human; conditions: increasing concentrations, FIG. 6
Protocol: Total RNA was isolated using TRIzol (Invitrogen) as previously described (Zhang et al., 2006). One hundred nanograms of RNA from each sample were subjected to qRT-PCR (ThermoFisher). An 18S probe was used as an internal control. Each sample was examined in triplicate. Relative RNA expression levels were determined by normalizing with internal controls, the values were calculated using the comparative Ct method.
Subsequently, the transcription levels of the endogenous CtBP target genes BAX, BRCA1, and E-Cadherin in Tat-E1A treated H1299 cells were evaluated using real-time PCR.

[7] = system: IMQ-based psoriasis model; assay: IMQ-based psoriasis model; type: in vivo, mouse; conditions: FIG. 15B, versus PBS
[8] = system: IMQ-based psoriasis model; assay: IMQ-based psoriasis model; type: in vivo, mouse
Protocol: To elucidate the molecular mechanisms for the Pep1-E1A blocker, H&E and immunostaining for proliferative and inflammatory markers was performed.

In the case of `CC(C)C[C@H](NC(=O)[C@H](CC(=O)O)NC(=O)[C@H](CC(C)C)NC(=O)[C@@H]1CCCN1C(=O)[C@H](CCC(N)=O)NC(=O)CNC(=O)[C@@H]1CCCN1C(=O)[C@@H](N)CCC(=O)O)C(=O)N[C@@H](CO)C(=O)N[C@@H](CS)C(=O)N[C@@H](CCCCN)C(=O)N[C@@H](CCCNC(=N)N)C(=O)N1CCC[C@H]1C(=O)N[C@@H](CCCNC(=N)N)C(=O)O` [Wild-type, reference compound] (H-EPGQPLDLSCKRPR-OH; N-terminus and C-terminus assumed), the IC50 (CtBP-E1A interaction [1]) is given as about 7 µM, the IC50 (CtBP-E1A interaction [2]) is given as 7.26 µM and the IC50 (CtBP [3]) is given as 6 µM. The Kd (CtBP [4]) was 4.3 µM.

With “GRKKRRQRRRPPQ [Tat, cell penetrating peptide alone, control, reference compound]” the cell viability (3T3 cells) was “no effect”, the cell viability (A375 melanoma cells) was “no effect” and the cell viability [5] was “no effect”.

In the case of GRKKRRQRRRPPQLEEPGQPLDLSCKRPR [Tat-E1A], the cell viability (3T3 cells) is reported as “does not affect”, the “CtBP-mediated suppression of target genes BAX, BRCA1, E-Cadherin (transcription levels)” value [6] is reported as “dose-dependent alleviation; also recorded: relieves the suppression” and the cell viability (A375 melanoma cells) is reported as “reduces the viability”. The “erythema, thickening and scaling (cumulative score)” value [7] was “Reduction” and the cell viability [5] was “reduces the viability”.

In the case of “KETWWETWWTEWSQPKKKRKVLEEPGQPLDLSCKRPR [Pep1-E1A]”, the psoriasis-like phenotype ([8]; applied on the skin (data not shown)) is reported as “largely reduced”, the “IMQ-induced epithelial hyperplasia and inflammatory cell infiltration in the stroma (H&E)” value ([8]; compared to PBS-treated skin, FIG. 7A) is reported as “decreases” and the “BrdU incorporation (proliferation)” value ([8]; immunostaining, FIG. 7B) is reported as “largely reduced; also recorded: decreased”. The “CD45 staining (inflammation)” value ([8]; immunostaining, FIG. 7B) was “largely prevented; also recorded: decreased”, the psoriasis-like phenotype ([8]; injected subcutaneously, FIG. 7) was “largely reduced” and the “resistance to IMQ-induction of psoriasis” value ([8]; treated mice versus PBS control) was “showed resistance”. For the same molecule, the “erythema, thickening and scaling (cumulative score)” value [7] was “Reduction”.
